# Results published in US20230085307A1, “PYRIDAZINONE COMPOUND AND HERBICIDE” (NISSAN CHEMICAL CORPORATION, priority 2019, published 2023).
# Tests used:
# late watergrass = assay: Test Example 1: herbicidal activity, application before weed generation under submerged conditions (Table 16, symbol A); type: in vivo, late watergrass (Echinochloa oryzicola); conditions: 320 g/ha applied herbicide
# Summary of the method: (§1)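 Emulsion formulation, water-diluted to set dose, was put onto the flooded surface (4 cm depth, alluvial soil) the same day weeds were sown and 2.5-leaf rice transplanted. After 3 weeks at 25-30 °C under glass, each species was rated 0 (≤5% kill) to 5 (≥90% kill).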
# Japanese bulrush = assay: Test Example 1: herbicidal activity, application before weed generation under submerged conditions (Table 16, symbol B); type: in vivo, Japanese bulrush (Schoenoplectus juncoides); conditions: 320 g/ha applied herbicide
# Summary of the method: as §1
# oval-leafed pondweed = assay: Test Example 1: herbicidal activity, application before weed generation under submerged conditions (Table 16, symbol C); type: in vivo, oval-leafed pondweed (Monochoria vaginalis); conditions: 320 g/ha applied herbicide
# Summary of the method: as §1
# barnyard grass [1] = assay: Test Example 3: herbicidal effect by foliage application, Wagner pot (Table 18, symbol H); type: in vivo, barnyard grass (Echinochloa crus-galli); conditions: 320 g/ha
# Summary of the method: (§2)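 Plants were sown in alluvial soil held under 0.1–0.5 cm standing water and grown 14 days in a greenhouse at 25–30 °C. An emulsifiable formulation, water-diluted to the set dose, was then sprayed onto the foliage, and effects were scored three weeks later using previously defined criteria.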
# Chinese sprangletop = assay: Test Example 3: herbicidal effect by foliage application, Wagner pot (Table 18, symbol D); type: in vivo, chinese sprangletop (Leptochloa chinensis); conditions: 320 g/ha
# Summary of the method: as §2
# rice flat sedge = assay: Test Example 3: herbicidal effect by foliage application, Wagner pot (Table 18, symbol E); type: in vivo, rice flat sedge (Cyperus iria); conditions: 320 g/ha
# Summary of the method: as §2
# southern crabgrass [2] = assay: Test Example 4: herbicidal effect by soil treatment (Table 19, symbol F); type: in vivo, southern crabgrass (Digitaria ciliaris); conditions: amount of applied herbicide 320 g/ha
# Summary of the method: (§3)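 Pre-emergence style soil spray: seeds under ~1.5 cm sterilized diluvial soil received a uniform coat of emulsion diluted to the predetermined herbicide amount. Greenhouse 25–30° C; readout at week three on previously defined criteria.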
# green foxtail [3] = assay: Test Example 4: herbicidal effect by soil treatment (Table 19, symbol G); type: in vivo, green foxtail (Setaria viridis); conditions: amount of applied herbicide 320 g/ha
# Summary of the method: as §3
# barnyard grass [4] = assay: Test Example 4: herbicidal effect by soil treatment (Table 19, symbol H); type: in vivo, barnyard grass (Echinochloa crus-galli); conditions: amount of applied herbicide 320 g/ha
# Summary of the method: as §3
# wild oat [5] = assay: Test Example 4: herbicidal effect by soil treatment (Table 19, symbol I); type: in vivo, wild oat (Avena fatua); conditions: amount of applied herbicide 320 g/ha
# Summary of the method: as §3
# blackgrass [6] = assay: Test Example 4: herbicidal effect by soil treatment (Table 19, symbol J); type: in vivo, blackgrass (Alopecurus myosuroides); conditions: amount of applied herbicide 320 g/ha
# Summary of the method: as §3
# Italian ryegrass [7] = assay: Test Example 4: herbicidal effect by soil treatment (Table 19, symbol K); type: in vivo, Italian ryegrass (Lolium multiflorum); conditions: amount of applied herbicide 320 g/ha
# Summary of the method: as §3
# windgrass [8] = assay: Test Example 4: herbicidal effect by soil treatment (Table 19, symbol L); type: in vivo, windgrass (Apera spica-venti); conditions: amount of applied herbicide 320 g/ha
# Summary of the method: as §3
# velvetleaf [9] = assay: Test Example 4: herbicidal effect by soil treatment (Table 19, symbol M); type: in vivo, velvetleaf (Abutilon theophrasti); conditions: amount of applied herbicide 320 g/ha
# Summary of the method: as §3
# redroot pigweed [10] = assay: Test Example 4: herbicidal effect by soil treatment (Table 19, symbol N); type: in vivo, redroot pigweed (Amaranthus retroflexus); conditions: amount of applied herbicide 320 g/ha
# Summary of the method: as §3
# lambsquarters [11] = assay: Test Example 4: herbicidal effect by soil treatment (Table 19, symbol O); type: in vivo, lambsquarters (Chenopodium album); conditions: amount of applied herbicide 320 g/ha
# Summary of the method: as §3
# chickweed [12] = assay: Test Example 4: herbicidal effect by soil treatment (Table 19, symbol P); type: in vivo, common chickweed (Stellaria media); conditions: amount of applied herbicide 320 g/ha
# Summary of the method: as §3
# false cleavers [13] = assay: Test Example 4: herbicidal effect by soil treatment (Table 19, symbol Q); type: in vivo, false cleavers (Galium spurium); conditions: amount of applied herbicide 320 g/ha
# Summary of the method: as §3
# persian speedwell [14] = assay: Test Example 4: herbicidal effect by soil treatment (Table 19, symbol R); type: in vivo, Persian speedwell (Veronica persica); conditions: amount of applied herbicide 320 g/ha
# Summary of the method: as §3
# southern crabgrass [15] = assay: Test Example 5: herbicidal effect by foliage application, plastic box (Table 20, symbol F); type: in vivo, southern crabgrass (Digitaria ciliaris); conditions: foliage application, 320 g/ha, three weeks after application
# Summary of the method: (§4)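 Plants were sown into sterilized diluvial soil under about 1.5 cm cover and kept in a greenhouse at 25° C. to 30° C. Fourteen days on, foliage received an even spray of the diluted emulsion. Herbicidal or crop effect was judged three weeks afterwards.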
# green foxtail [16] = assay: Test Example 5: herbicidal effect by foliage application, plastic box (Table 20, symbol G); type: in vivo, green foxtail (Setaria viridis); conditions: foliage application, 320 g/ha, three weeks after application
# Summary of the method: as §4
# barnyard grass [17] = assay: Test Example 5: herbicidal effect by foliage application, plastic box (Table 20, symbol H); type: in vivo, barnyard grass (Echinochloa crus-galli); conditions: foliage application, 320 g/ha, three weeks after application
# Summary of the method: as §4
# wild oat [18] = assay: Test Example 5: herbicidal effect by foliage application, plastic box (Table 20, symbol I); type: in vivo, wild oat (Avena fatua); conditions: foliage application, 320 g/ha, three weeks after application
# Summary of the method: as §4
# blackgrass [19] = assay: Test Example 5: herbicidal effect by foliage application, plastic box (Table 20, symbol J); type: in vivo, blackgrass (Alopecurus myosuroides); conditions: foliage application, 320 g/ha, three weeks after application
# Summary of the method: as §4
# Italian ryegrass [20] = assay: Test Example 5: herbicidal effect by foliage application, plastic box (Table 20, symbol K); type: in vivo, Italian ryegrass (Lolium multiflorum); conditions: foliage application, 320 g/ha, three weeks after application
# Summary of the method: as §4
# windgrass [21] = assay: Test Example 5: herbicidal effect by foliage application, plastic box (Table 20, symbol L); type: in vivo, windgrass (Apera spica-venti); conditions: foliage application, 320 g/ha, three weeks after application
# Summary of the method: as §4
# velvetleaf [22] = assay: Test Example 5: herbicidal effect by foliage application, plastic box (Table 20, symbol M); type: in vivo, velvetleaf (Abutilon theophrasti); conditions: foliage application, 320 g/ha, three weeks after application
# Summary of the method: as §4
# redroot pigweed [23] = assay: Test Example 5: herbicidal effect by foliage application, plastic box (Table 20, symbol N); type: in vivo, redroot pigweed (Amaranthus retroflexus); conditions: foliage application, 320 g/ha, three weeks after application
# Summary of the method: as §4
# lambsquarters [24] = assay: Test Example 5: herbicidal effect by foliage application, plastic box (Table 20, symbol O); type: in vivo, lambsquarters (Chenopodium album); conditions: foliage application, 320 g/ha, three weeks after application
# Summary of the method: as §4
# chickweed [25] = assay: Test Example 5: herbicidal effect by foliage application, plastic box (Table 20, symbol P); type: in vivo, common chickweed (Stellaria media); conditions: foliage application, 320 g/ha, three weeks after application
# Summary of the method: as §4
# false cleavers [26] = assay: Test Example 5: herbicidal effect by foliage application, plastic box (Table 20, symbol Q); type: in vivo, false cleavers (Galium spurium); conditions: foliage application, 320 g/ha, three weeks after application
# Summary of the method: as §4
# persian speedwell [27] = assay: Test Example 5: herbicidal effect by foliage application, plastic box (Table 20, symbol R); type: in vivo, Persian speedwell (Veronica persica); conditions: foliage application, 320 g/ha, three weeks after application
# Summary of the method: as §4
Compound,Herbicidal effect on A: late watergrass (grade 0-5) (late watergrass),Herbicidal effect on B: Japanese bulrush (grade 0-5) (Japanese bulrush),Herbicidal effect on C: oval-leafed pondweed (grade 0-5) (oval-leafed pondweed),"herbicidal effect on H (barnyard grass), rating 0-5 (barnyard grass [1])","herbicidal effect on D (Chinese sprangletop), rating 0-5 (Chinese sprangletop)","herbicidal effect on E (rice flat sedge), rating 0-5 (rice flat sedge)","herbicidal effect rating, F: southern crabgrass (southern crabgrass [2])","herbicidal effect rating, G: green foxtail (green foxtail [3])","herbicidal effect rating, H: barnyard grass (barnyard grass [4])","herbicidal effect rating, I: wild oat (wild oat [5])","herbicidal effect rating, J: blackgrass (blackgrass [6])","herbicidal effect rating, K: Italian ryegrass (Italian ryegrass [7])","herbicidal effect rating, L: windgrass (windgrass [8])","herbicidal effect rating, M: velvetleaf (velvetleaf [9])","herbicidal effect rating, N: redroot pigweed (redroot pigweed [10])","herbicidal effect rating, O: lambsquarters (lambsquarters [11])","herbicidal effect rating, P: chickweed (chickweed [12])","herbicidal effect rating, Q: false cleavers (false cleavers [13])","herbicidal effect rating, R: persian speedwell (persian speedwell [14])","herbicidal effect grade, F: southern crabgrass (southern crabgrass [15])",other results
CCCCc1ccc(-c2sc3ccccc3c2-c2c(OC(=O)CCC)c(C)nn(C)c2=O)cc1 [1-006],3 (Herbicidal rate of 40% or more and less than 70%),1 (Herbicidal rate of 5% or more and less than 20%),0 (Herbicidal rate of 5% or less (almost no effect)),3 (Herbicidal rate of 40% or more and less than 70%),0 (Herbicidal rate of 5% or less (almost no effect)),5 (Herbicidal rate of 90% or more (almost completely withered)),0 (Herbicidal rate of 5% or less (almost no effect)),0 (Herbicidal rate of 5% or less (almost no effect)),0 (Herbicidal rate of 5% or less (almost no effect)),0 (Herbicidal rate of 5% or less (almost no effect)),0 (Herbicidal rate of 5% or less (almost no effect)),0 (Herbicidal rate of 5% or less (almost no effect)),0 (Herbicidal rate of 5% or less (almost no effect)),0 (Herbicidal rate of 5% or less (almost no effect)),0 (Herbicidal rate of 5% or less (almost no effect)),4 (Herbicidal rate of 70% or more and less than 90%),0 (Herbicidal rate of 5% or less (almost no effect)),0 (Herbicidal rate of 5% or less (almost no effect)),3 (Herbicidal rate of 40% or more and less than 70%),0 (Herbicidal rate of 5% or less (almost no effect)),"herbicidal effect grade, G: green foxtail (green foxtail [16]): 0 (Herbicidal rate of 5% or less (almost no effect)); herbicidal effect grade, H: barnyard grass (barnyard grass [17]): 0 (Herbicidal rate of 5% or less (almost no effect)); herbicidal effect grade, I: wild oat (wild oat [18]): 0 (Herbicidal rate of 5% or less (almost no effect)); herbicidal effect grade, J: blackgrass (blackgrass [19]): 0 (Herbicidal rate of 5% or less (almost no effect)); herbicidal effect grade, K: Italian ryegrass (Italian ryegrass [20]): 0 (Herbicidal rate of 5% or less (almost no effect)); herbicidal effect grade, L: windgrass (windgrass [21]): 0 (Herbicidal rate of 5% or less (almost no effect)); herbicidal effect grade, M: velvetleaf (velvetleaf [22]): 4 (Herbicidal rate of 70% or more and less than 90%); herbicidal effect grade, N: redroot pigweed (redroot pigweed [23]): 5 (Herbicidal rate of 90% or more (almost completely withered)); herbicidal effect grade, O: lambsquarters (lambsquarters [24]): 4 (Herbicidal rate of 70% or more and less than 90%); herbicidal effect grade, P: chickweed (chickweed [25]): 5 (Herbicidal rate of 90% or more (almost completely withered)); herbicidal effect grade, Q: false cleavers (false cleavers [26]): 0 (Herbicidal rate of 5% or less (almost no effect)); herbicidal effect grade, R: persian speedwell (persian speedwell [27]): 5 (Herbicidal rate of 90% or more (almost completely withered))"
CCCC(=O)Oc1c(C)nn(C)c(=O)c1-c1c(-c2ccc(F)cc2OCC)sc2ccccc12 [1-062],2 (Herbicidal rate of 20% or more and less than 40%),2 (Herbicidal rate of 20% or more and less than 40%),0 (Herbicidal rate of 5% or less (almost no effect)),5 (Herbicidal rate of 90% or more (almost completely withered)),3 (Herbicidal rate of 40% or more and less than 70%),5 (Herbicidal rate of 90% or more (almost completely withered)),5 (Herbicidal rate of 90% or more (almost completely withered)),4 (Herbicidal rate of 70% or more and less than 90%),4 (Herbicidal rate of 70% or more and less than 90%),1 (Herbicidal rate of 5% or more and less than 20%),5 (Herbicidal rate of 90% or more (almost completely withered)),4 (Herbicidal rate of 70% or more and less than 90%),3 (Herbicidal rate of 40% or more and less than 70%),3 (Herbicidal rate of 40% or more and less than 70%),5 (Herbicidal rate of 90% or more (almost completely withered)),0 (Herbicidal rate of 5% or less (almost no effect)),3 (Herbicidal rate of 40% or more and less than 70%),5 (Herbicidal rate of 90% or more (almost completely withered)),4 (Herbicidal rate of 70% or more and less than 90%),5 (Herbicidal rate of 90% or more (almost completely withered)),"herbicidal effect grade, G: green foxtail (green foxtail [16]): 5 (Herbicidal rate of 90% or more (almost completely withered)); herbicidal effect grade, H: barnyard grass (barnyard grass [17]): 4 (Herbicidal rate of 70% or more and less than 90%); herbicidal effect grade, I: wild oat (wild oat [18]): 3 (Herbicidal rate of 40% or more and less than 70%); herbicidal effect grade, J: blackgrass (blackgrass [19]): 5 (Herbicidal rate of 90% or more (almost completely withered)); herbicidal effect grade, K: Italian ryegrass (Italian ryegrass [20]): 3 (Herbicidal rate of 40% or more and less than 70%); herbicidal effect grade, L: windgrass (windgrass [21]): 5 (Herbicidal rate of 90% or more (almost completely withered)); herbicidal effect grade, M: velvetleaf (velvetleaf [22]): 5 (Herbicidal rate of 90% or more (almost completely withered)); herbicidal effect grade, N: redroot pigweed (redroot pigweed [23]): 5 (Herbicidal rate of 90% or more (almost completely withered)); herbicidal effect grade, O: lambsquarters (lambsquarters [24]): 3 (Herbicidal rate of 40% or more and less than 70%); herbicidal effect grade, P: chickweed (chickweed [25]): 5 (Herbicidal rate of 90% or more (almost completely withered)); herbicidal effect grade, Q: false cleavers (false cleavers [26]): 5 (Herbicidal rate of 90% or more (almost completely withered)); herbicidal effect grade, R: persian speedwell (persian speedwell [27]): 5 (Herbicidal rate of 90% or more (almost completely withered))"
